Values joined by “and” are separate entries in the source; they are usually repeats but may differ in a detail not shown here. Identical values can stand only once. Like-named read-outs stand apart in the source and are kept apart here.
Type: in vivo, beagle dogs
Protocol: Once adequately conditioned to the restraint device and face-masks, the animals are individually exposed to the test article aerosols. Animals receive a single face-mask inhalation exposure in a ramp study design to test article aerosols for up to 60 min. Animal observations during and post exposure determine the tolerance of inhaled BisEDT aerosols.
Blood Collections and Bioanalytical Analysis: Blood are collected for pharmacokinetic (PK) analysis prior to exposure, then at 4 hr (±5 min) post exposure, and again on Day 1, Day 2, Day 7 (pre- and 4 hr (±5 min)-post exposure), Day 8, Day 9, Day 10, Day 11, Day 12, Day 13, and Day 14. A total of 0.25 mL is collected at each timepoint. No PK blood is collected from the vehicle control (Group 1) animals; only animals exposed to BisEDT have blood collected for PK analysis. Collected samples are flash frozen without processing for shipment to Medpace for bioanalytical analysis. Additional blood is collected from all animals in all groups for hematology (1 mL) and clinical chemistry (1 mL) at baseline, Day 7 (pre-exposure), and again at euthanasia. Blood (2-2 mL) is collected from all animals at necropsy for coagulation analysis (d-Dimer, fibrinogen, PT, and PTT).
For clinical chemistry analyses, whole blood (1 mL) is placed into serum separator or clot tube and […] by centrifugation at a minimum of 1300 g at 2 to 8° C. for 10 (±1) min. Plasma samples are stored at −70 to −90° C. until analysis.
Clinical chemistry samples are analyzed on a Hitachi Modular Analytics Clinical Chemistry System (Roche Diagnostics, Indianapolis, Ind.).

SMILES: C1C[S][Bi]([S]CC[S][Bi]2[S]CC[S]2)[S]1 [BisEDT, Bismuth-1,2-ethanedithiol]
- GGT (dog 4002 Female): 3 IU/L
- GLOB (dog 4002 Female): 2.1 g/dL and 2.0 g/dL
- GLUC (dog 4002 Female): 106 mg/dL and 79 mg/dL
- K (dog 4002 Female): 5.3 mmo/L
- Na (dog 4002 Female): 153 mmo/L and 149 mmo/L
- TBIL (dog 4002 Female): 0.15 mg/dL
- TP (dog 4002 Female): 5.6 g/dL and 5.5 g/dL
- TRIG (dog 4002 Female): 34 mg/dL and 41 mg/dL
- AGR (dog 4003 Male): 1.8 and 1.6
- ALB (dog 4003 Male): 3.5 g/dL and 3.3 g/dL
- ALPK (dog 4003 Male): 146 IU/L and 129 IU/L
- ALT (dog 4003 Male): 40 IU/L and 23 IU/L
- AST (dog 4003 Male): 30 IU/L and 33 IU/L
- BUN (dog 4003 Male): 16 mg/dL and 15 mg/dL
- CA2 (dog 4003 Male): 11.2 mg/dL and 11.0 mg/dL
- CHOL (dog 4003 Male): 152 mg/dL and 176 mg/dL
- CREA (dog 4003 Male): 0.6 mg/dL and 0.7 mg/dL
- Cl (dog 4003 Male): 117 mmo/L and 112 mmo/L
- GGT (dog 4003 Male): 3 IU/L
- GLOB (dog 4003 Male): 1.9 g/dL and 2.1 g/dL
- GLUC (dog 4003 Male): 109 mg/dL and 81 mg/dL
- K (dog 4003 Male): 4.9 mmo/L
- Na (dog 4003 Male): 149 mmo/L and 147 mmo/L
- TBIL (dog 4003 Male): 0.15 mg/dL
- TP (dog 4003 Male): 5.4 g/dL
- TRIG (dog 4003 Male): 55 mg/dL and 53 mg/dL
- AGR (dog 4004 Female): 2.0 and 1.7 and 1.9
- ALB (dog 4004 Female): 3.4 g/dL and 3.3 g/dL
- ALPK (dog 4004 Female): 103 IU/L and 93 IU/L and 95 IU/L
- ALT (dog 4004 Female): 28 IU/L and 25 IU/L and 24 IU/L
- AST (dog 4004 Female): 33 IU/L and 38 IU/L and 31 IU/L
- BUN (dog 4004 Female): 13 mg/dL
- CA2 (dog 4004 Female): 10.8 mg/dL and 10.6 mg/dL
- CHOL (dog 4004 Female): 125 mg/dL and 124 mg/dL and 112 mg/dL
- CREA (dog 4004 Female): 0.6 mg/dL
- Cl (dog 4004 Female): 119 mmo/L and 115 mmo/L and 114 mmo/L
- GGT (dog 4004 Female): 3 IU/L
- GLOB (dog 4004 Female): 1.7 g/dL and 1.9 g/dL
- GLUC (dog 4004 Female): 102 mg/dL and 70 mg/dL and 96 mg/dL
- K (dog 4004 Female): 4.6 mmo/L and 5.1 mmo/L and 4.3 mmo/L
- Na (dog 4004 Female): 153 mmo/L and 148 mmo/L and 146 mmo/L
- TBIL (dog 4004 Female): 0.15 mg/dL
- TP (dog 4004 Female): 5.1 g/dL and 5.2 g/dL and 5.0 g/dL
- TRIG (dog 4004 Female): 53 mg/dL and 49 mg/dL and 44 mg/dL
- AGR (dogs, Grp 2 Avg): 1.8 and 2.2 and 2.1
- ALB (dogs, Grp 2 Avg): 3.3 g/dL and 3.5 g/dL and 3.6 g/dL
- ALPK (dogs, Grp 2 Avg): 186 IU/L and 126 IU/L and 116 IU/L
- ALT (dogs, Grp 2 Avg): 20 IU/L and 26 IU/L and 25 IU/L
- AST (dogs, Grp 2 Avg): 42 IU/L and 39 IU/L and 37 IU/L
- BUN (dogs, Grp 2 Avg): 13 mg/dL and 15 mg/dL
- CA2 (dogs, Grp 2 Avg): 10.9 mg/dL and 10.8 mg/dL
- CHOL (dogs, Grp 2 Avg): 153 mg/dL and 145 mg/dL and 133 mg/dL
- CREA (dogs, Grp 2 Avg): 0.7 mg/dL and 0.6 mg/dL
- Cl (dogs, Grp 2 Avg): 110 mmo/L and 114 mmo/L and 111 mmo/L
- GGT (dogs, Grp 2 Avg): 3 IU/L
- GLOB (dogs, Grp 2 Avg): 1.8 g/dL and 1.7 g/dL
- GLUC (dogs, Grp 2 Avg): 93 mg/dL and 98 mg/dL and 96 mg/dL
- K (dogs, Grp 2 Avg): 4.8 mmo/L and 5.1 mmo/L and 4.7 mmo/L
- Na (dogs, Grp 2 Avg): 149 mmo/L and 147 mmo/L and 148 mmo/L
- TBIL (dogs, Grp 2 Avg): 0.15 mg/dL
- TP (dogs, Grp 2 Avg): 5.1 g/dL and 5.2 g/dL and 5.4 g/dL
- TRIG (dogs, Grp 2 Avg): 52 mg/dL and 60 mg/dL and 47 mg/dL
- AGR (dogs, Grp 3 Avg): 2.2 and 1.9 and 2.4
- ALB (dogs, Grp 3 Avg): 3.4 g/dL and 3.5 g/dL and 3.6 g/dL
- ALPK (dogs, Grp 3 Avg): 153 IU/L and 113 IU/L and 149 IU/L
- ALT (dogs, Grp 3 Avg): 27 IU/L and 22 IU/L and 21 IU/L
- AST (dogs, Grp 3 Avg): 30 IU/L and 32 IU/L
- CA2 (dogs, Grp 3 Avg): 11.0 mg/dL and 10.7 mg/dL and 10.2 mg/dL
- CHOL (dogs, Grp 3 Avg): 113 mg/dL and 143 mg/dL and 126 mg/dL
- CREA (dogs, Grp 3 Avg): 0.6 mg/dL and 1.0 mg/dL
- Cl (dogs, Grp 3 Avg): 112 mmo/L and 110 mmo/L
- GGT (dogs, Grp 3 Avg): 3 IU/L
- GLOB (dogs, Grp 3 Avg): 1.6 g/dL and 1.9 g/dL and 1.5 g/dL
- GLUC (dogs, Grp 3 Avg): 106 mg/dL and 89 mg/dL and 58 mg/dL
- K (dogs, Grp 3 Avg): 5.1 mmo/L and 5.2 mmo/L and 5.9 mmo/L
- Na (dogs, Grp 3 Avg): 148 mmo/L and 146 mmo/L and 149 mmo/L
- TBIL (dogs, Grp 3 Avg): 0.15 mg/dL
- TP (dogs, Grp 3 Avg): 4.9 g/dL and 5.3 g/dL and 5.1 g/dL
- TRIG (dogs, Grp 3 Avg): 30 mg/dL and 39 mg/dL and 55 mg/dL
- AGR (dogs, Grp 4 Avg): 2.2 and 1.8 and 1.9
- ALB (dogs, Grp 4 Avg): 3.5 g/dL and 3.4 g/dL and 3.3 g/dL
- ALPK (dogs, Grp 4 Avg): 103 IU/L and 104 IU/L and 107 IU/L
- ALT (dogs, Grp 4 Avg): 28 IU/L and 26 IU/L
- AST (dogs, Grp 4 Avg): 33 IU/L and 39 IU/L
- BUN (dogs, Grp 4 Avg): 12 mg/dL and 13 mg/dL
- CA2 (dogs, Grp 4 Avg): 10.8 mg/dL and 10.7 mg/dL and 10.5 mg/dL
- CHOL (dogs, Grp 4 Avg): 139 mg/dL and 136 mg/dL and 112 mg/dL
- CREA (dogs, Grp 4 Avg): 0.7 mg/dL and 0.6 mg/dL
- Cl (dogs, Grp 4 Avg): 120 mmo/L and 116 mmo/L and 114 mmo/L
- GGT (dogs, Grp 4 Avg): 3 IU/L
- GLOB (dogs, Grp 4 Avg): 1.7 g/dL and 1.9 g/dL
- GLUC (dogs, Grp 4 Avg): 102 mg/dL and 76 mg/dL and 91 mg/dL
- K (dogs, Grp 4 Avg): 4.7 mmo/L and 5.0 mmo/L and 4.5 mmo/L
- Na (dogs, Grp 4 Avg): 153 mmo/L and 148 mmo/L and 146 mmo/L
- TBIL (dogs, Grp 4 Avg): 0.15 mg/dL
- TP (dogs, Grp 4 Avg): 5.2 g/dL and 5.3 g/dL and 5.0 g/dL
- TRIG (dogs, Grp 4 Avg): 51 mg/dL and 48 mg/dL and 42 mg/dL
